In ChEMBL document CHEMBL5143626, “Marine Natural Products as Leads against SARS-CoV-2 Infection” (J Nat Prod, 2022) one finds EC50, CC50 and Activity data, which are given here for 5 compounds.

Data set [1] relates to SARS-CoV-2. Nature of the data set: Antiviral activity against SARS-CoV-2 isolate USA-WA1/2020 infected in Calu-3 cells preincubated for 24 hrs followed by viral infection and measured after 48 hrs by Hoechst 33342 staining based microscopic method. Format: functional, organism-based. To be noted: Severe acute respiratory syndrome coronavirus 2, USA-WA1/2020, Calu-3.
In another data set the test system is Calu-3. Kind of data set: (§1) Cytotoxicity against human Calu-3 cells assessed as reduction in cell viability. Format: toxicity, cell-based. The note with it: calu-3.
In data set [2] the test system is SARS-CoV-2. Kind of data set: Antiviral activity against SARS-CoV-2 isolate USA-WA1/2020 infected in Calu-3 cells at 2.8 uM preincubated for 24 hrs followed by viral infection and measured after 48 hrs by Hoechst 33342 staining based microscopic method. The note with it: Severe acute respiratory syndrome coronavirus 2, time 72.0 hrs. Format: functional, organism-based.

Data set [3] deals with SARS-CoV-2. Nature of the data set: Antiviral activity against SARS-CoV-2 isolate USA-WA1/2020 infected in human Primary bronchial epithelial cells assessed as reduction in viral RNA replication at 2.8 uM preincubated for 1 hr followed by viral infection and measured after 48 hrs by qRT-PCR method relative to control. Format: functional, Severe acute respiratory syndrome coronavirus 2, Primary bronchial epithelial cell. More on the design: scale not given: the % may be the effect or the level left. The note with it: time 49 hrs. (In general: Quantitative PCR measures a nucleic acid by following its amplification.)

For data set [4], the system named is SARS-CoV-2. Kind of data set: Antiviral activity against SARS-CoV-2 isolate USA-WA1/2020 infected in Calu-3 cells assessed at 0.5 uM preincubated for 24 hrs followed by viral infection and measured after 48 hrs by Hoechst 33342 staining based microscopic method relative to control. Format: functional, organism-based. The note with it: Severe acute respiratory syndrome coronavirus 2, time 72.0 hrs.

Data set [5] is described as follows: as §1. It counts as toxicity, cell-based. To be noted: Calu-3 cells.
In data set [6] the test system is SARS-CoV-2. Kind of data set: Antiviral activity against SARS-CoV-2 isolate USA-WA1/2020 infected in Calu-3 cells at 1 uM preincubated for 24 hrs followed by viral infection and measured after 48 hrs by Hoechst 33342 staining based microscopic method. Format: functional, organism-based. The note with it: Severe acute respiratory syndrome coronavirus 2, time 72.0 hrs.

In data set [7] the test system is SARS-CoV-2. Kind of data set: Antiviral activity against SARS-CoV-2 isolate USA-WA1/2020 infected in Calu-3 cells at 10 uM preincubated for 24 hrs followed by viral infection and measured after 48 hrs by Hoechst 33342 staining based microscopic method. Format: functional, organism-based. To be noted: Severe acute respiratory syndrome coronavirus 2, time 72.0 hrs.

Calls of active or inactive are those of the source. The calls are words filed in the database; no cut-off is given here.

For orientation: EC50 means the concentration giving half of the maximal effect. In general, CC50 refers to the concentration giving 50% cytotoxicity.

Consider `CCC(CC)COC(=O)[C@H](C)N[P@](=O)(OC[C@H]1O[C@@](C#N)(c2ccc3c(N)ncnn23)[C@H](O)[C@@H]1O)Oc1ccccc1` [REMDESIVIR], for which the response in the data set with SARS-CoV-2 [1] was half-maximal at 300 nM (EC50). Moreover, in the data set with Calu-3, the half-maximal cytotoxic concentration (CC50) was greater than 5 µM.
In turn, `CC(=O)C[C@]1(O)c2ccccc2-[n+]2ccc3c([nH]c4ccccc43)c21.O=C([O-])C(F)(F)F` came in with an EC50 in the data set with SARS-CoV-2 [1] of 1100 nM. The result in the data set with SARS-CoV-2 [2] and in the data set with SARS-CoV-2 [4] was Active. For the same compound, the Activity in the data set on SARS-CoV-2 [3] is greater than 90%. For the same compound, in data set [5], the cytotoxic concentration (CC50) came out at 5 µM.
In turn, `C[C@H]1CC[C@H]2C(C)(C)CCC[C@]23Oc2ccc(O)cc2C[C@]13C` [AUREOL] yielded a half-maximal effective concentration (EC50) with SARS-CoV-2 [1] of 4000 nM. Also, the result in the data set with SARS-CoV-2 [6] and with SARS-CoV-2 [7] was Active. In addition, in the data set with Calu-3, the CC50 was greater than 10 µM.
As for `CC(C)=CCC[C@@H](C)[C@H]1CC[C@@]2(C(=O)O)C3=C(CC[C@]12C)[C@@]1(C)CC[C@H](O[C@@H]2OC[C@H](O)[C@H](O[C@@H]4OC[C@H](O)[C@H](O[C@@H]5O[C@H](CO)[C@H](O)[C@H](O)[C@H]5O)[C@H]4O)[C@H]2O[C@@H]2O[C@H](CO)[C@H](O)[C@H](O)[C@H]2O)C(C)(C)C1CC3` (stereo partly specified), the result in the data set with SARS-CoV-2 [6] was Active.
As for `CC1=C2Cc3cc(ccc3O)C(=O)O[C@H](C(C)(C)Br)CC[C@](C)(O)[C@H](Br)CC[C@]2(C)[C@@H](Br)CC1`, the EC50 in the data set with SARS-CoV-2 [1] came to 6900 nM. The result with SARS-CoV-2 [6] and in the data set with SARS-CoV-2 [7] was Active. Besides, the half-maximal cytotoxic concentration (CC50) in the data set with Calu-3 is greater than 10 µM.
